Calls of active or inactive are those of the source.
How the values were obtained:
[1] = target: Fructose-bisphosphate aldolase (Mycobacterium tuberculosis, UniProt P9WQA3); assay: Fluorescence-based biochemical high throughput dose response assay for inhibitors of the fructose-bisphosphate aldolase (FBA) of M. tuberculosis.; type: functional
[2] = Luminescence Cell-Based Dose Response HTS to Identify Activators of Luciferase Translation or Activity in H4 […] Cells. [Related pubchem assays: 1829 (Project Summary), 1814 (Primary HTS)]; type: functional
[3] = MC4R antagonists, dose response, counter-screen for LGR2 antagonist project, cell-based, plate reader, cherry pick (AID 743444); type: functional;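 also: transfected HEK 293 cells stimulated with alpha-MSH peptide; potency of inhibitors of the alpha-MSH evoked signal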
[4] = LGR2 antagonists, dose response, cell-based, HEK293, CRE-luciferase reporter, cherry pick, set 2 (AID 743343); type: functional;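 also: transfected cells were stimulated with diluted bursicon conditioned medium after compound addition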
[5] = A549 cell cytotoxicity, dose response, cytotoxicity control, plate reader, cherry-pick, antagonist series (AID 743412); type: functional, cell-based
H4 = assay: Luminescence Cell-Based Dose Response HTS to Identify Activators of 5'UTR Stem-Loop Driven Prion Protein mRNA Translation in H4 Neuroglioblastoma Cells. [Related pubchem assays: 1829 (Project Summary), 1814 (Primary HTS)]; type: functional; conditions: Homo sapiens
[6] = HEK293 cell cytotoxicity, dose response, cytotoxicity control, plate reader, cherry-picked samples (AID 743446); type: functional, cell-based
[7] = target: T1, Heat shock factor protein 1 (Mus musculus, UniProt P38532); assay: inhibition of MG132-induced HSE-luciferase signal, confirmation, cell-based, NIH3T3, luminescence, dose retest (AID 2382); type: functional;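 also: NIH3T3 fibroblasts with HSF1-driven luciferase reporter stressed by proteasome inhibitor MG132; luminescence from HSF1-driven luciferase expression after 8 hours of MG132 stress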
T1 sequence (P38532 whole entry): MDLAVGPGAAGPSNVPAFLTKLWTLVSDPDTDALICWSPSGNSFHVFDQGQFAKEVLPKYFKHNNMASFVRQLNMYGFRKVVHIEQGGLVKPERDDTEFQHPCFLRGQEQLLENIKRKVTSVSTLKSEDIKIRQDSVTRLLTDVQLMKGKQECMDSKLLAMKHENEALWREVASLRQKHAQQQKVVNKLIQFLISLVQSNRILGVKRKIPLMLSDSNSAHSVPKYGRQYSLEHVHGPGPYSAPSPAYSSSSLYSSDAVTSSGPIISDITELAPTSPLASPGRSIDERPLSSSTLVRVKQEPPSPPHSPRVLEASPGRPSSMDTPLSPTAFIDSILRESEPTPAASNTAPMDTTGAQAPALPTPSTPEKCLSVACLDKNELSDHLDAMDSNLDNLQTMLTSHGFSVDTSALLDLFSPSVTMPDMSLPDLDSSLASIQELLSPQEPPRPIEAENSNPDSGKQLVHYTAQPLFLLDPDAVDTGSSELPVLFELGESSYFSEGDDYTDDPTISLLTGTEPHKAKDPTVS

[8] = Luminescence Cell-Based Dose Confirmation HTS to Identify Activators of 5'UTR Stem-Loop Driven Alpha-Synuclein mRNA Translation in H4 Neuroglioblastoma Cells. [Related pubchem assays: 1829 (Project Summary), 1814 (Primary HTS)]; type: functional
Cytochrome P450 3A4 = Cytochrome P450 3A4 (Homo sapiens, UniProt P08684);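 also: CYP3A4 tested as one member of a cytochrome P450 panel screen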
Chain of Cytochrome P450 3A4 (P08684 whole entry): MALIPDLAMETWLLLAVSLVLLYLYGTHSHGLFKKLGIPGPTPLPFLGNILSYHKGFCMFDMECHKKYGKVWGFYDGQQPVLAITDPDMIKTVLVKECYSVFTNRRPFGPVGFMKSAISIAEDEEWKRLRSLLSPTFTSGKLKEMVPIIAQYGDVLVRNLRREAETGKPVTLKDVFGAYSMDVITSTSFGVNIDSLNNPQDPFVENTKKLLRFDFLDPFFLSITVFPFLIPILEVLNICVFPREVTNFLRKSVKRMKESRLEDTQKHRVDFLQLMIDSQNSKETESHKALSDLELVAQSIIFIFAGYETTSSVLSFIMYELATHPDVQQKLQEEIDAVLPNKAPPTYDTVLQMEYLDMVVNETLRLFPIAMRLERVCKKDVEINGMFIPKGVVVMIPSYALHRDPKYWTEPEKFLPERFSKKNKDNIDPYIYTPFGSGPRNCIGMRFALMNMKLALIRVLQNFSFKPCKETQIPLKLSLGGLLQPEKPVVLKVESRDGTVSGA

fMet-Leu-Phe receptor = fMet-Leu-Phe receptor (Homo sapiens, UniProt P21462); assay: FPR ligands, dose response (AID 519); type: functional
Chain of fMet-Leu-Phe receptor (P21462 whole entry): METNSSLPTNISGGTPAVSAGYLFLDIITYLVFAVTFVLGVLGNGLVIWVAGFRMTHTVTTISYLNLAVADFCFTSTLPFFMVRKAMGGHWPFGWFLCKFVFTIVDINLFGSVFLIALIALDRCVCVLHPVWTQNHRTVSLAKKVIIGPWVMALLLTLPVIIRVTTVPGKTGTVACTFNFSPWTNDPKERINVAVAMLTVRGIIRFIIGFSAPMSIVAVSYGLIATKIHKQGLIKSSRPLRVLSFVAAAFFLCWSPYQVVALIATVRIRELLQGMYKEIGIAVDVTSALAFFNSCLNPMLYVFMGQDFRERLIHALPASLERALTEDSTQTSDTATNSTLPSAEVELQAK

[9] = target: DNA dC->dU-editing enzyme APOBEC-3G (Homo sapiens, UniProt Q9HC16); type: functional;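 also: Dose-response counterscreen measuring inhibition of APOBEC3G DNA deaminase activity, run while confirming APOBEC3A inhibitors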
Chain of DNA dC->dU-editing enzyme APOBEC-3G (Q9HC16 whole entry): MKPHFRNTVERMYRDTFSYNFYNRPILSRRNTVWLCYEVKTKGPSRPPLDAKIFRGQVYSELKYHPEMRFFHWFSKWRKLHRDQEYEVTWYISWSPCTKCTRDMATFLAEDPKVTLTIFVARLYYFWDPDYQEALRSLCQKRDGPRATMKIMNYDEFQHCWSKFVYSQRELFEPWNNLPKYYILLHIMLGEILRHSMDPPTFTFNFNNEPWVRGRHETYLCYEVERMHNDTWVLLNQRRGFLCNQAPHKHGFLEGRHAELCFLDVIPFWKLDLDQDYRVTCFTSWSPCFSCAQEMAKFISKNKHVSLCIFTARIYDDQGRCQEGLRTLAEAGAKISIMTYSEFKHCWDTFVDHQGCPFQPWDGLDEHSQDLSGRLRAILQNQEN

[10] = target: DNA dC->dU-editing enzyme APOBEC-3A (Homo sapiens, UniProt P31941); assay: Dose Response confirmation of small molecule APOBEC3A DNA Deaminase Inhibitors via a fluorescence-based single-stranded DNA deaminase assay. [Related pubchem assays (depositor defined):AID493011, AID493024]; type: functional
Chain of DNA dC->dU-editing enzyme APOBEC-3A (P31941 whole entry): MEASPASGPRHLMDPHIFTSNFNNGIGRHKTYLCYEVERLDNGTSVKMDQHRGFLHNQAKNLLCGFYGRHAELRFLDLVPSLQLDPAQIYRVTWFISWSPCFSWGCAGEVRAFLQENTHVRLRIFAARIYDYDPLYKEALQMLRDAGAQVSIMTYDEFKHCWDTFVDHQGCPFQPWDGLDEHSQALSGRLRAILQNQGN

Beta-galactosidase = Beta-galactosidase (Escherichia coli, UniProt Q8VNN2); assay: Dose response counterscreen for EBI2 assay utilizing the enzyme, b-galactosidase.; type: functional
Chain of Beta-galactosidase (Q8VNN2 whole entry): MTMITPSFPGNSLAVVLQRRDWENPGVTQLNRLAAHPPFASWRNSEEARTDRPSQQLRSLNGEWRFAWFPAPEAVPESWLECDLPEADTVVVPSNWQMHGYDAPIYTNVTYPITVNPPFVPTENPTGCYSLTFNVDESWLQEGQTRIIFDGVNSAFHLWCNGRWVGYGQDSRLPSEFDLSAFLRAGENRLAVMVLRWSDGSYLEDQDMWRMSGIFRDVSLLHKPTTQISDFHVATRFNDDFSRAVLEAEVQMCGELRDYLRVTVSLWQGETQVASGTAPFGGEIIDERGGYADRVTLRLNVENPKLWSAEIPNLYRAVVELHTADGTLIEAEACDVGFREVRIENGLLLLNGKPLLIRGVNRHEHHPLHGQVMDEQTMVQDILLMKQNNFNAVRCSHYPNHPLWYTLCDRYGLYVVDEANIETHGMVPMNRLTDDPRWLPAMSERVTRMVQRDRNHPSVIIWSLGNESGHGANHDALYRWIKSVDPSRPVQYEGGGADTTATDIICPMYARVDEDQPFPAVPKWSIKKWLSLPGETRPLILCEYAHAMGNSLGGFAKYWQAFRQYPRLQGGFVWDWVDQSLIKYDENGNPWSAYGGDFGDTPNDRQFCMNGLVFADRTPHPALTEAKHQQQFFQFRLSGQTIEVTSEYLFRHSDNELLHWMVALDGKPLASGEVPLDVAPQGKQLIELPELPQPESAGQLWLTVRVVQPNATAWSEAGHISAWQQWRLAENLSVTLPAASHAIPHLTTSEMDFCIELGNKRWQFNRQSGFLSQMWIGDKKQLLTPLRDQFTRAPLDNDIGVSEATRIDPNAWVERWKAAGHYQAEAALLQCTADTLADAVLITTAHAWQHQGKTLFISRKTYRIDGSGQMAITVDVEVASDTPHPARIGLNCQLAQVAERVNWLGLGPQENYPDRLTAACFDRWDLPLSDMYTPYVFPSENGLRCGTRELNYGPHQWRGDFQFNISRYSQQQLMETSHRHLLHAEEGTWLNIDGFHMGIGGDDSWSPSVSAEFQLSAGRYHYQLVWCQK

cells [11] = type: functional, cell-based
[12] = target: Nuclear receptor subfamily 0 group B member 1 (Homo sapiens, UniProt P51843); type: functional, cell-based;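 also: HEK293T cells transfected with SF-1 and DAX-1 plus StAR promoter luciferase reporter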
Chain of Nuclear receptor subfamily 0 group B member 1 (P51843 whole entry): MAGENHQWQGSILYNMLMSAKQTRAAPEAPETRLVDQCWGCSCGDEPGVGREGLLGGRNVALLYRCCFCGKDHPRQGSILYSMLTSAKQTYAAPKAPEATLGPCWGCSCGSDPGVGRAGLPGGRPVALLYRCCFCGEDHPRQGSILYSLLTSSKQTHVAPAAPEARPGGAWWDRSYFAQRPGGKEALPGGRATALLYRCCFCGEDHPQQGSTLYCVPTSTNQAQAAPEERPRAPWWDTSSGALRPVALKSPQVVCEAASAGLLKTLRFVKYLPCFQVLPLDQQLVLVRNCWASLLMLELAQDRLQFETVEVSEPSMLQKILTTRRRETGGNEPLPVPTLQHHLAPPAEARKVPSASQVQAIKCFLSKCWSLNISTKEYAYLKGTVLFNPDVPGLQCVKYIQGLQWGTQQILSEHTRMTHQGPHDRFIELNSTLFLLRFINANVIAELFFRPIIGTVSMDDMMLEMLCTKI

[13] = cytotoxicity toward NIH3T3 fibroblasts, dose response, counter-screen, cell-based, ATP luminescence, mouse fibroblasts (AID 2010); type: functional;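 also: cells exposed to compound for about 90 hours before reading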
[14] = target: DNA repair protein RAD52 homolog (Homo sapiens, UniProt P43351); type: functional, biochemical
Chain of DNA repair protein RAD52 homolog (P43351 whole entry): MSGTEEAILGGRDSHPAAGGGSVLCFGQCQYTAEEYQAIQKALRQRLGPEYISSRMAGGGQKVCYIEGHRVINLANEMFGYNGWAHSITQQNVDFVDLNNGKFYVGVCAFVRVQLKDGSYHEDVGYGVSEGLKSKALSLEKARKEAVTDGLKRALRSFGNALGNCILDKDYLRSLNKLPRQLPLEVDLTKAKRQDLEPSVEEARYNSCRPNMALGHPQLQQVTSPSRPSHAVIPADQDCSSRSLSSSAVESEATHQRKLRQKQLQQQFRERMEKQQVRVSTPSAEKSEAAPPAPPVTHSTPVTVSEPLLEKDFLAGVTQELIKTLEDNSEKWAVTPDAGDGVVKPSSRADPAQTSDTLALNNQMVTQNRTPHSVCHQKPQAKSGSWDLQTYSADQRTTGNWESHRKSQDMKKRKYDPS

[15] = Luminescence Cell-Based Dose Retest to Confirm Inhibitors of Cancer Stem Cells. [Related pubchem assays (depositor defined):AID2717, AID2721]; type: functional; conditions: Homo sapiens
[16] = inhibitors of intracellular T. cruzi replication, confirmation, NIH3T3 host cells, beta-gal luminescence (AID 2044); type: functional, cell-based;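 also: intracellular parasites grown in NIH/3T3 mouse fibroblasts as host cells; luminescent beta-galactosidase reporter signal from transgenic T. cruzi replicating inside host cells; inhibitors lower the luminescence signal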
[17] = human group III sPLA2 inhibitors, dose response, biochemical, QFRET, IC50 (AID 743457);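 also: green fluorescence rise as the enzyme cleaves BODIPY PC-A2 in liposomes; potency for inhibition of the enzyme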
Melanocortin receptor 4 = Melanocortin receptor 4 (Homo sapiens, UniProt P32245); type: functional, cell-based;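 also: Cell-based assay with luminescence read-out, confirmatory dose-response testing for agonist activity of biased ligands at MC4R; human U2OS cells with tagged receptor and beta-arrestin; potency of agonists that increase receptor coupling to beta-arrestin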
Chain of Melanocortin receptor 4 (P32245 whole entry): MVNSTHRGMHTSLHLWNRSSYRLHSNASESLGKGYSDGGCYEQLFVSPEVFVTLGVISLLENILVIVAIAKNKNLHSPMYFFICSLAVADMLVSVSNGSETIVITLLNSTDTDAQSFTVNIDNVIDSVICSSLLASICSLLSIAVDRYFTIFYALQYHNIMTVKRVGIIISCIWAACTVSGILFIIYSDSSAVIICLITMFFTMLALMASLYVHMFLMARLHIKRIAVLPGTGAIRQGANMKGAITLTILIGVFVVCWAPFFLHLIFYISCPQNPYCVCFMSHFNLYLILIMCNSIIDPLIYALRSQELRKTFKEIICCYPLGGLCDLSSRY

cells [18] = type: functional, cell-based; remark: listed apart in the source
[19] = target: T2, Trace amine-associated receptor 1 (Homo sapiens, UniProt Q96RJ0); assay: Fluorescence-based cell-based high throughput dose response assay to identify agonists of the human trace amine associated receptor 1 (TAAR1).; type: functional
T2 sequence (Q96RJ0 whole entry): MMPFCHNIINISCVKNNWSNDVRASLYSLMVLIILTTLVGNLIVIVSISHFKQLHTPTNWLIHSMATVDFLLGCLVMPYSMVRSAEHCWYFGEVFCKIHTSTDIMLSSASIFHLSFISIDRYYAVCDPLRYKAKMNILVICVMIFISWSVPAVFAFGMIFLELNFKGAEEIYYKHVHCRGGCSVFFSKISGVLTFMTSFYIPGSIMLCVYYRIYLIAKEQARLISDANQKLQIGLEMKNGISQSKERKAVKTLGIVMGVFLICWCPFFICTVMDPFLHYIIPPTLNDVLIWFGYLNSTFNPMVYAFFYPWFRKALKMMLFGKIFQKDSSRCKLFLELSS

cells [20] = type: functional, cell-based; remark: listed apart in the source
[21] = target: T2, Trace amine-associated receptor 1; assay: Counterscreen for agonists of the human trace amine associated receptor 1 (hTAAR1): Fluorescence-based cell-based high throughput dose response assay to identify hTAAR1 agonist that also desensitize TAAR1 receptor response.; type: functional

Chain of Fructose-bisphosphate aldolase (P9WQA3 whole entry): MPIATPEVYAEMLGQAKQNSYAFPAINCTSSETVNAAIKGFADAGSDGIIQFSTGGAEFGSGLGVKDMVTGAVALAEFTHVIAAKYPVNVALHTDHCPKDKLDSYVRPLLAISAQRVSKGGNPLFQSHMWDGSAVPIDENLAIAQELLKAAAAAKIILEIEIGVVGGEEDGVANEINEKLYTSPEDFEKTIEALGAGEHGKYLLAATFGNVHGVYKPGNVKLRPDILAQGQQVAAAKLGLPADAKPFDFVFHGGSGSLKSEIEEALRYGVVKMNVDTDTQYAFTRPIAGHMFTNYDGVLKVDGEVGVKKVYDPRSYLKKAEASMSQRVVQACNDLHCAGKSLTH

SMILES: O=C1NC(=O)c2cc(NC(=O)C3CCCO3)ccc21 (configuration not stated)
- IC50 [1]: 2.39 µM (active)

SMILES: CN(C(=O)COC(=O)c1nc(Cl)c(Cl)c(Cl)c1Cl)C1CCS(=O)(=O)C1 (configuration not stated)
- EC50 [2]: > 120 µM (not active)
- AC50 [3]: 22.7 µM (active)
- AC50 [4]: 15.8 µM (active)
- AC50 [5]: 7.97 µM (active)
- EC50 (H4): > 120 µM (not active)
- AC50 [6]: 6.09 µM (active)
- EC50 [7]: 13.1 µM (active)
- EC50 [8]: > 120 µM (not active)

SMILES: COCCCN1C(=O)C(O)=C(C(=O)c2ccc(OC)cc2C)C1c1cccnc1 (configuration not stated)
- AC50 (Cytochrome P450 3A4): 20 µM (inconclusive)
- Ki (fMet-Leu-Phe receptor): > 66.7 µM (inactive)

SMILES: COc1ccccc1CCNC(=O)C1CCN(C(=O)/C=C/c2ccccc2)CC1
- IC50 [9]: 14.6 µM (active)
- IC50 [10]: 13.9 µM (active)
- IC50 (Beta-galactosidase): > 80 µM (inactive)

SMILES: CCOC(=O)c1c(SCC(=O)Nc2nccs2)nc(C)c(C)c1C
- IC50 (cells [11]): > 67.5 µM (inactive)
- IC50 [12]: > 67.5 µM (inactive)

SMILES: Cc1cc(N2CCN(C)CC2)nc2ccc(NC(S)=NCCC(C)C)cc12
- EC50 [13]: 8.05 µM (active)
- AC50 [14]: 28.2 µM (active)
- AC50 [15]: 1.24 µM (active)
- EC50 [16]: 0.746 µM (active)

SMILES: Nc1cc(N)c2c(c1)C(=O)c1ccccc1-2
- IC50 [17]: > 122 µM (inactive)

SMILES: CC(=O)Nc1cc(-c2ccc(N(C)C)cc2)cn2c(-c3ccc(F)cc3)cnc12
- EC50 (Melanocortin receptor 4): > 9.91 µM (active)
- IC50 (Beta-galactosidase): > 80 µM (inactive)

SMILES: COC(=O)[C@]12CCCCC=C1N(Cc1ccccc1)C(=O)[C@H](CC(=O)NCCc1ccccc1OC)C2
- EC50 (cells [18]): > 29.9 µM (inactive)
- EC50 [19]: 2.49 µM (active)
- IC50 (cells [20]): 27.7 µM (inactive)
- IC50 [21]: 4.83 µM (active)

— ChEMBL document CHEMBL1201862, “PubChem BioAssay data set” (2004)
